One data set has as its system carbonic anhydrase. The settings on record: relative to acetazolamide; cited from earlier work.
The conditions of data set [1]: upon reaching a stable dose or following dosage adjustment; cited from earlier work.
A further data set concerns rat hippocampal slices. The settings on record: 10-30 μg/mL; cited from earlier work.
In a further data set the test system is sodium channels. The settings on record: in vitro; cited from earlier work.
For the next data set, the system named is T-type Ca^2+ currents. Particulars: in vitro; cited from earlier work.
In data set [2] the test system is dopaminergic and serotonergic neurotransmission. Particulars: in vivo microdialysis; cited from earlier work.
Data set [3] deals with GABA/benzodiazepine receptor ionophore complex. The settings on record: in vitro; does not produce changes in chloride flux; cited from earlier work.
For data set [4], the system named is cultured mouse spinal cord neurons. The settings on record: 10-30 μg/mL, cited from earlier work.
On the set-up of data set [5]: species or system patients (human). Particulars: human, in vivo. The text has this: The pharmacovigilance data that were collected, reviewed and analyzed provided the following information in respect of the incidence of NMS. To date, a total of 3 cases (two adult and one pediatric) fulfill the criteria of potential neuroleptic malignant syndrome. These cases were reviewed in detail for evaluation of possible safety signals. They were all deemed serious, and in all cases, the patients recovered with appropriate treatment.
Cases ZONI000813 and ZONI000929 are adult cases from Japan. In both cases the patients carried a diagnosis of Parkinson's disease (PD) and were enrolled in a double blind, placebo controlled […] study of zonisamide as a potential treatment for PD (Protocol AD810N-202-1). […]
Estimates of exposure, based upon retail and mail order prescriptions, indicate that the number of unique patients taking zonisamide capsules in the U.S. is about 37,276 (total prescriptions per year/average number of prescriptions per patient per year less a calculated percentage decrease based on estimated annual dropouts) in the time between approval in 2000 and December 2002 . […] Similarly, the incidences of NMS estimated herein are unlikely to be higher than calculated. Based on the exposure data and number of NMS cases, the incidence of NMS in the U.S. and Japan is calculated to be about 1:37,276 unique patients and 1:592,588 unique patients, respectively.

`NS(=O)(=O)Cc1noc2ccccc12` [zonisamide, 1,2-benzisoxazole-3-methanesulfonamide]: in the data set on carbonic anhydrase, the “carbonic anhydrase inhibition compared to acetazolamide” value was 1/50. Also, the “time required to achieve steady-state levels” value in [1] is given as “up to two weeks”. For the same compound, the “neuronal or glial uptake of [3H]-GABA” value in the data set with rat hippocampal slices is listed as “without affecting”. For the same compound, the “effect on sodium channels” value in the data set with sodium channels was “blocks sodium channels”. In the data set on T-type Ca^2+ currents, the “effect on T-type Ca2+ currents” value was “reduces voltage-dependent, transient inward currents”. The effect on neurotransmission result in data set [2] was “facilitates both dopaminergic and serotonergic neurotransmission”. Also, in [3], the “binding to GABA/benzodiazepine receptor ionophore complex” value was “binds to the GABA/benzodiazepine receptor ionophore complex in an allosteric fashion”. Besides, the “postsynaptic GABA or glutamate responses” value in data set [4] (cultured mouse spinal cord neurons) is reported as “without affecting”. The synaptically-driven electrical activity in data set [4] is recorded as “suppresses synaptically-driven electrical activity”. In addition, in [5], the “cases fulfilling the criteria of potential neuroleptic malignant syndrome” value is 3 cases and the “incidence of NMS” value was “about 1:37,276 unique patients”.

The values are drawn from patent publication US20050154033A1, “Methods of using zonisamide as an adjunctive therapy for partial seizures” (Eisai Co., Ltd, priority 2004, published 2005).
